Tested on: cultured hippocampal neurons

Compound | frequency of spontaneous IPSCs [%] | amplitude of miniature PSCs [%] | frequency of miniature PSCs [%]
CC(C)NCC(O)c1ccc(O)c(O)c1 (stereo not drawn) [isoproterenol, 4-[1-hydroxy-2-(1-methylethylamino)ethyl]benzene-1,2-diol] | 122±58 | – | –
ω-agatoxin IVA | – | 90±7 | 27±7
